Assay results from PubChem BioAssay AID2060624 (Molecular Pharmacology Branch, DTP, NCI, 2025).

Tested on: 217524-143-R1-J4-PDC spheroids with HUVEC/MSC, viability
Test: Anticancer human tumor 217524-143-R1-J4-PDC patient-derived pancreatic carcinoma cell line growth inhibition [CLK]
Settings: for IC50: curve of first compound; for viability, T/C: stronger effect = lower value
How it was run: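 Patient-derived tumor cells grown as complex spheroids with HUVEC endothelial cells and mesenchymal stem cells, treated with drug combinations. Concentrations descend in half-log steps from near clinical Cmax, or from 10 microM if Cmax unknown.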

[1] = second compound 0.0316 µM, first compound 0.0316 µM
[2] = second compound 0.0316 µM, first compound 0.1 µM
[3] = second compound 0.0316 µM, first compound 0.316 µM
[4] = second compound 0.0316 µM, first compound 1 µM
[5] = second compound 0.1 µM, first compound 0.0316 µM
[6] = second compound 0.1 µM, first compound 0.1 µM
[7] = second compound 0.1 µM, first compound 0.316 µM
[8] = second compound 0.1 µM, first compound 1 µM
[9] = second compound 0.316 µM, first compound 0.0316 µM
[10] = second compound 0.316 µM, first compound 0.1 µM
[11] = second compound 0.316 µM, first compound 0.316 µM
[12] = second compound 0.316 µM, first compound 1 µM
[13] = second compound 1 µM, first compound 0.0316 µM
[14] = second compound 1 µM, first compound 0.1 µM
[15] = second compound 1 µM, first compound 0.316 µM
[16] = second compound 1 µM, first compound 1 µM
[17] = second compound 3.16 µM, first compound 0.0316 µM
[18] = second compound 3.16 µM, first compound 0.1 µM
[19] = second compound 3.16 µM, first compound 0.316 µM
[20] = second compound 3.16 µM, first compound 1 µM
[21] = second compound 10 µM, first compound 0.0316 µM
[22] = second compound 10 µM, first compound 0.1 µM
[23] = second compound 10 µM, first compound 0.316 µM
[24] = second compound 10 µM, first compound 1 µM
[25] = second compound 0.0316 µM, first compound 0.00316 µM
[26] = second compound 0.0316 µM, first compound 0.01 µM
[27] = second compound 0.1 µM, first compound 0.00316 µM
[28] = second compound 0.1 µM, first compound 0.01 µM
[29] = second compound 0.316 µM, first compound 0.00316 µM
[30] = second compound 0.316 µM, first compound 0.01 µM
[31] = second compound 1 µM, first compound 0.00316 µM
[32] = second compound 1 µM, first compound 0.01 µM
[33] = second compound 3.16 µM, first compound 0.00316 µM
[34] = second compound 3.16 µM, first compound 0.01 µM
[35] = second compound 10 µM, first compound 0.00316 µM
[36] = second compound 10 µM, first compound 0.01 µM
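Also: spheroids exposed to agents for seven days before reading.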
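For viability, T/C in this document: 100% = DMSO vehicle control viability.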

## CC(Nc1ccc2c(c1)OCCn1cc(N3C(=O)OCC3C(F)F)nc1-2)C(N)=O (stereo unspecified) + CNC(=O)c1ccc(Nc2nc(OC3CCCC3)c3c(-c4ccc5nc(C)oc5c4)c[nH]c3n2)c(OC)c1
Second compound 0.0316 µM
  IC50: 55.8 nM
Second compound 0.1 µM
  IC50: < 31.6 nM
Second compound 0.316 µM
  IC50: < 31.6 nM
Second compound 1 µM
  IC50: < 31.6 nM
Second compound 3.16 µM
  IC50: < 31.6 nM
Second compound 10 µM
  IC50: < 31.6 nM
[1]
  viability, T/C: 63.3%
[2]
  viability, T/C: 36.5%
[3]
  viability, T/C: 15.6%
[4]
  viability, T/C: 8.68%
Second compound 0.0316 µM, first compound 3.16 µM
  viability, T/C: 6.12%
Second compound 0.0316 µM, first compound 10 µM
  viability, T/C: 4.83%
[5]
  viability, T/C: 31.9%
[6]
  viability, T/C: 20.7%
[7]
  viability, T/C: 11.4%
[8]
  viability, T/C: 7.98%
Second compound 0.1 µM, first compound 3.16 µM
  viability, T/C: 5.53%
Second compound 0.1 µM, first compound 10 µM
  viability, T/C: 4.2%
[9]
  viability, T/C: 24.7%
[10]
  viability, T/C: 13.8%
[11]
  viability, T/C: 7.07%
[12]
  viability, T/C: 4.72%
Second compound 0.316 µM, first compound 3.16 µM
  viability, T/C: 3.59%
Second compound 0.316 µM, first compound 10 µM
  viability, T/C: 3.01%
[13]
  viability, T/C: 16.8%
[14]
  viability, T/C: 10.2%
[15]
  viability, T/C: 5.1%
[16]
  viability, T/C: 3.22%
Second compound 1 µM, first compound 3.16 µM
  viability, T/C: 3.05%
Second compound 1 µM, first compound 10 µM
  viability, T/C: 2.02%
[17]
  viability, T/C: 17.7%
[18]
  viability, T/C: 9.35%
[19]
  viability, T/C: 4.79%
[20]
  viability, T/C: 3.52%
Second compound 3.16 µM, first compound 3.16 µM
  viability, T/C: 2.61%
Second compound 3.16 µM, first compound 10 µM
  viability, T/C: 2.12%
[21]
  viability, T/C: 18.6%
[22]
  viability, T/C: 10.6%
[23]
  viability, T/C: 6.17%
[24]
  viability, T/C: 2.83%
Second compound 10 µM, first compound 3.16 µM
  viability, T/C: 3.46%
Second compound 10 µM, first compound 10 µM
  viability, T/C: 2.14%

## CCN1CCN(Cc2ccc(Nc3ncc(F)c(-c4cc(F)c5nc(C)n(C(C)C)c5c4)n3)nc2)CC1 + CNC(=O)c1ccc(Nc2nc(OC3CCCC3)c3c(-c4ccc5nc(C)oc5c4)c[nH]c3n2)c(OC)c1
Second compound 0.0316 µM
  IC50: 133 nM
Second compound 0.1 µM
  IC50: < 3.16 nM
Second compound 0.316 µM
  IC50: < 3.16 nM
Second compound 1 µM
  IC50: < 3.16 nM
Second compound 3.16 µM
  IC50: < 3.16 nM
Second compound 10 µM
  IC50: < 3.16 nM
[25]
  viability, T/C: 84.8%
[26]
  viability, T/C: 71.2%
[1]
  viability, T/C: 68.4%
[2]
  viability, T/C: 52.4%
[3]
  viability, T/C: 40%
[4]
  viability, T/C: 38.4%
[27]
  viability, T/C: 50.3%
[28]
  viability, T/C: 42%
[5]
  viability, T/C: 35.6%
[6]
  viability, T/C: 27.8%
[7]
  viability, T/C: 37.2%
[8]
  viability, T/C: 36%
[29]
  viability, T/C: 46.8%
[30]
  viability, T/C: 34.8%
[9]
  viability, T/C: 30.8%
[10]
  viability, T/C: 25.7%
[11]
  viability, T/C: 30.5%
[12]
  viability, T/C: 32%
[31]
  viability, T/C: 28.4%
[32]
  viability, T/C: 26.2%
[13]
  viability, T/C: 28.5%
[14]
  viability, T/C: 25.2%
[15]
  viability, T/C: 25.2%
[16]
  viability, T/C: 26.3%
[33]
  viability, T/C: 25.3%
[34]
  viability, T/C: 24.8%
[17]
  viability, T/C: 23.9%
[18]
  viability, T/C: 21.1%
[19]
  viability, T/C: 21.6%
[20]
  viability, T/C: 22.2%
[35]
  viability, T/C: 24.3%
[36]
  viability, T/C: 23%
[21]
  viability, T/C: 23.8%
[22]
  viability, T/C: 21.9%
[23]
  viability, T/C: 21.4%
[24]
  viability, T/C: 26.4%

## COc1c(OCCCN2CCOCC2)ccc2c3n(c(=NC(=O)c4cnc(N)nc4)nc12)CCN3 + CNC(=O)c1ccc(Nc2nc(OC3CCCC3)c3c(-c4ccc5nc(C)oc5c4)c[nH]c3n2)c(OC)c1
Second compound 0.0316 µM
  IC50: 6.97 nM
Second compound 0.1 µM
  IC50: < 3.16 nM
Second compound 0.316 µM
  IC50: < 3.16 nM
Second compound 1 µM
  IC50: < 3.16 nM
Second compound 3.16 µM
  IC50: < 3.16 nM
Second compound 10 µM
  IC50: < 3.16 nM
[25]
  viability, T/C: 74.9%
[26]
  viability, T/C: 38.7%
[1]
  viability, T/C: 10.4%
[2]
  viability, T/C: 4.29%
[3]
  viability, T/C: 2.9%
[4]
  viability, T/C: 2.31%
[27]
  viability, T/C: 36.7%
[28]
  viability, T/C: 21.8%
[5]
  viability, T/C: 9.86%
[6]
  viability, T/C: 3.54%
[7]
  viability, T/C: 3.16%
[8]
  viability, T/C: 2.09%
[29]
  viability, T/C: 22.1%
[30]
  viability, T/C: 14.2%
[9]
  viability, T/C: 7.78%
[10]
  viability, T/C: 3.17%
[11]
  viability, T/C: 2.58%
[12]
  viability, T/C: 2.49%
[31]
  viability, T/C: 19.9%
[32]
  viability, T/C: 10.9%
[13]
  viability, T/C: 4.57%
[14]
  viability, T/C: 3.24%
[15]
  viability, T/C: 1.78%
[16]
  viability, T/C: 1.77%
[33]
  viability, T/C: 21%
[34]
  viability, T/C: 11.8%
[17]
  viability, T/C: 5.14%
[18]
  viability, T/C: 2.24%
[19]
  viability, T/C: 1.69%
[20]
  viability, T/C: 1.26%
[35]
  viability, T/C: 16.7%
[36]
  viability, T/C: 9.36%
[21]
  viability, T/C: 5%
[22]
  viability, T/C: 2.58%
[23]
  viability, T/C: 1.86%
[24]
  viability, T/C: 1.37%
